In ChEMBL document CHEMBL1201862, “PubChem BioAssay data set” (2004):
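In this assay, cells in 96-well plates receive the compound at five concentrations for 48 hours. Endpoints are linearly interpolated between the surrounding concentrations. The concentration for 50% growth inhibition is given as GI50.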 Active and inactive are the calls of the source. No stated cut-off is given here; in the data, active = GI50 up to about 1.1 µM and inactive = higher.

Tests used:
Test in all cases: NCI tumour cell line growth inhibition, 48 h
[1] = tested on: EKVX
[2] = tested on: HCT-116
[3] = tested on: HCT-15
[4] = tested on: HOP-62
[5] = tested on: K562
[6] = tested on: MCF7
[7] = tested on: MOLT-4
[8] = tested on: NCI-H460
[9] = tested on: NCI/ADR-RES
[10] = tested on: OVCAR-3
[11] = tested on: OVCAR-5
[12] = tested on: SF-268
[13] = tested on: SK-MEL-2
[14] = tested on: SK-MEL-5
[15] = tested on: SK-OV-3
[16] = tested on: SNB-19
[17] = tested on: SNB-75
[18] = tested on: TK-10
[19] = tested on: U-251
[20] = tested on: UACC-257

Compound | GI50 [1] | GI50 [2] | GI50 [3] [µM] | GI50 [4] | GI50 [5] | GI50 [6] | GI50 [7] | GI50 [8] | GI50 [9] | GI50 [10] | GI50 [11] | GI50 [12] | GI50 [13] | GI50 [14] | GI50 [15] | GI50 [16] | GI50 [17] | GI50 [18] | GI50 [19] | GI50 [20]
COc1cc(C2c3cc4c(cc3OC3(OC)COC(=O)C23)OCO4)cc(OC)c1OC (stereo not given) | 0.343 µM (active) | 0.267 µM (active) | 0.286 | 0.48 µM (active) | 0.23 µM (active) | 0.292 µM (active) | 0.456 µM (active) | 0.38 µM (active) | 0.128 µM (active) | 0.282 µM (active) | 3.66 µM (inactive) | 0.514 µM (active) | 0.771 µM (active) | 0.292 µM (active) | 0.348 µM (active) | 1.64 µM (inactive) | 0.311 µM (active) | 1.19 µM (inactive) | 0.377 µM (active) | 2.66 µM (inactive)
CCC1([N+](=O)[O-])CN(N=O)C1 | > 100 µM (inactive) | > 100 µM (inactive) | > 100 | > 100 µM (inactive) | > 100 µM (inactive) | > 100 µM (inactive) | > 100 µM (inactive) | > 100 µM (inactive) | > 100 µM (inactive) | > 100 µM (inactive) | > 100 µM (inactive) | > 100 µM (inactive) | > 100 µM (inactive) | > 100 µM (inactive) | > 100 µM (inactive) | > 100 µM (inactive) | > 100 µM (inactive) | > 100 µM (inactive) | > 100 µM (inactive) | > 100 µM (inactive)
COc1ccc(/C=C/C(=O)Oc2ccccc2OC)cc1 | 37.8 µM (inactive) | 2.91 µM (inactive) | 3.27 | 8 µM (inactive) | 23.8 µM (inactive) | 44.4 µM (inactive) | 1.57 µM (inactive) | > 100 µM (inactive) | 27.8 µM (inactive) | 53.8 µM (inactive) | 23.6 µM (inactive) | 1.81 µM (inactive) | 39 µM (inactive) | 30.7 µM (inactive) | > 100 µM (inactive) | 50.2 µM (inactive) | 27.2 µM (inactive) | > 81.8 µM (inactive) | 37.4 µM (inactive) | > 60.7 µM (inactive)
O=C1CC(NCc2ccccc2)c2c(Cl)sc(Cl)c21 (stereo not given) | 37.5 µM (inactive) | 15.1 µM (inactive) | 20.1 | 29 µM (inactive) | 16.6 µM (inactive) | 14 µM (inactive) | 4.23 µM (inactive) | > 61.4 µM (inactive) | 28.1 µM (inactive) | 20 µM (inactive) | 39.8 µM (inactive) | 16.3 µM (inactive) | 19.5 µM (inactive) | 27 µM (inactive) | > 74 µM (inactive) | 33.7 µM (inactive) | 29.8 µM (inactive) | 31.3 µM (inactive) | 18.3 µM (inactive) | 19.6 µM (inactive)
CC(=O)OC1=CC2=CC[C@H]3[C@@H]4CCC(=O)[C@@]4(C)CC(=O)[C@]3(S)[C@@]2(C)CC1 | > 100 µM (inactive) | 21.7 µM (inactive) | 34.2 | 38.9 µM (inactive) | 25.1 µM (inactive) | 30.6 µM (inactive) | 17.4 µM (inactive) | 25.2 µM (inactive) | 75.7 µM (inactive) | 22.7 µM (inactive) | > 100 µM (inactive) | 26.7 µM (inactive) | 47.1 µM (inactive) | 31.6 µM (inactive) | 65.6 µM (inactive) | 79.8 µM (inactive) | 40.5 µM (inactive) | 27.9 µM (inactive) | 29.6 µM (inactive) | 27.3 µM (inactive)
C[N+](C)(CCNC(=O)c1cccc2cc3ccccc3nc12)Cc1ccc([N+](=O)[O-])cc1 | > 100 µM (inactive) | > 100 µM (inactive) | > 100 | > 100 µM (inactive) | > 100 µM (inactive) | > 100 µM (inactive) | > 100 µM (inactive) | > 100 µM (inactive) | > 100 µM (inactive) | > 100 µM (inactive) | > 100 µM (inactive) | > 100 µM (inactive) | > 100 µM (inactive) | 50 µM (inactive) | > 100 µM (inactive) | > 100 µM (inactive) | > 100 µM (inactive) | > 100 µM (inactive) | > 100 µM (inactive) | > 100 µM (inactive)
CN(C)Cc1ccc(O)c(CN(C)C)n1 | > 100 µM (inactive) | > 100 µM (inactive) | > 100 | > 100 µM (inactive) | > 100 µM (inactive) | > 100 µM (inactive) | > 100 µM (inactive) | > 100 µM (inactive) | > 100 µM (inactive) | > 100 µM (inactive) | > 100 µM (inactive) | > 100 µM (inactive) | > 100 µM (inactive) | > 100 µM (inactive) | > 100 µM (inactive) | > 100 µM (inactive) | > 100 µM (inactive) | > 100 µM (inactive) | > 100 µM (inactive) | > 100 µM (inactive)
NC(=O)c1cccc(/N=c2\oc3ccc(Br)cc3cc2-c2nc3ccccc3[nH]2)c1 | 13.9 µM (inactive) | 16.4 µM (inactive) | 12.7 | 16.2 µM (inactive) | 18.8 µM (inactive) | 12.9 µM (inactive) | 12.5 µM (inactive) | 15.5 µM (inactive) | 12.1 µM (inactive) | 16.2 µM (inactive) | 16.3 µM (inactive) | 15.1 µM (inactive) | 19.9 µM (inactive) | 1.81 µM (inactive) | 16.4 µM (inactive) | 14.8 µM (inactive) | 1.47 µM (inactive) | 17 µM (inactive) | 13.2 µM (inactive) | 20 µM (inactive)
COc1cc2c(cc1OC)C1Cc3ccccc3CN1CCC2 (stereo not given) | > 100 µM (inactive) | 91.6 µM (inactive) | > 100 | > 100 µM (inactive) | 50 µM (inactive) | > 100 µM (inactive) | 67.6 µM (inactive) | > 100 µM (inactive) | > 100 µM (inactive) | > 100 µM (inactive) | > 100 µM (inactive) | > 100 µM (inactive) | > 100 µM (inactive) | > 100 µM (inactive) | > 100 µM (inactive) | > 100 µM (inactive) | 37.6 µM (inactive) | > 100 µM (inactive) | > 100 µM (inactive) | > 100 µM (inactive)
CN(C)CCNc1ccc2c(=O)n(CCN(C)C)c(=O)n3c4ccc([N+](=O)[O-])cc4c(=O)c1c23 | 0.55 µM (active) | 0.0769 µM (active) | 0.0966 | 0.384 µM (active) | 0.063 µM (active) | 0.0716 µM (active) | < 0.0141 µM (active) | 0.0838 µM (active) | 0.251 µM (active) | 0.27 µM (active) | 0.532 µM (active) | 0.334 µM (active) | 0.397 µM (active) | 1.04 µM (active) | 0.76 µM (active) | 0.452 µM (active) | 0.293 µM (active) | 1.09 µM (active) | 0.34 µM (active) | 0.728 µM (active)
O=S1(=O)CCC2=CC(C(F)(F)F)=CC(C(F)(F)F)=CN21 | 2.93 µM (inactive) | 0.245 µM (active) | 0.485 | 2.34 µM (inactive) | 0.39 µM (active) | 0.386 µM (active) | 0.243 µM (active) | 2.59 µM (inactive) | 1.09 µM (active) | 1.12 µM (active) | 2.11 µM (inactive) | 1.72 µM (inactive) | 1.82 µM (inactive) | 1.42 µM (inactive) | 3.86 µM (inactive) | 2.47 µM (inactive) | 1.71 µM (inactive) | 0.697 µM (active) | 1.83 µM (inactive) | 2.14 µM (inactive)
O=Nc1c(-c2cccc([N+](=O)[O-])c2)nc2cnccn12 | 34 µM (inactive) | 4.68 µM (inactive) | 14.5 | 26.6 µM (inactive) | 18.3 µM (inactive) | 36 µM (inactive) | 3.92 µM (inactive) | 33.9 µM (inactive) | 21.4 µM (inactive) | 16.8 µM (inactive) | 20.1 µM (inactive) | 25.9 µM (inactive) | 27.9 µM (inactive) | 29.4 µM (inactive) | 68.7 µM (inactive) | > 100 µM (inactive) | 35.2 µM (inactive) | 5.04 µM (inactive) | 20.4 µM (inactive) | 19.7 µM (inactive)
COCN(CCC1=CCCCC1)C(=O)OC | > 100 µM (inactive) | 41.4 µM (inactive) | > 100 | > 100 µM (inactive) | 61.5 µM (inactive) | 43.1 µM (inactive) | > 100 µM (inactive) | 29.9 µM (inactive) | > 100 µM (inactive) | 76.7 µM (inactive) | > 100 µM (inactive) | > 100 µM (inactive) | > 100 µM (inactive) | 81.7 µM (inactive) | > 100 µM (inactive) | > 100 µM (inactive) | > 100 µM (inactive) | > 100 µM (inactive) | > 100 µM (inactive) | > 100 µM (inactive)
C/C=C1/CN2[C@@H](C3=C[C@@H]4[C@@H]5N(C3=O)c3ccccc3[C@@]53CCN5C/C(=C/C)[C@@H]4C[C@H]53)C[C@@]34c5ccccc5N5C(=O)CC=C([C@H]1C[C@H]23)[C@H]54 [ISOSUNGUCINE] | 5.66 µM (inactive) | 2.94 µM (inactive) | 2.33 | 7.06 µM (inactive) | 2.05 µM (inactive) | 3.46 µM (inactive) | 1.46 µM (inactive) | 6.62 µM (inactive) | 8.81 µM (inactive) | 5.85 µM (inactive) | 7.76 µM (inactive) | 6.19 µM (inactive) | 5.32 µM (inactive) | 2.75 µM (inactive) | 8.77 µM (inactive) | 7.52 µM (inactive) | 7.91 µM (inactive) | 7.85 µM (inactive) | 2.23 µM (inactive) | 1.24 µM (inactive)
